Assay results from US20050288333A1 (priority 2004, published 2005).
Counter-ions that a name gives are not always drawn. Like-named read-outs stand apart in the source and are kept apart here.

Tests used:
[1] = molecular target: T1, α4β2 nicotinic acetylcholine receptor (Rattus norvegicus, UniProt P09483+P12390); assay: [3H]-N-methylcarbamyl choline (3H-MCC) displacement, rat cerebral cortex membranes; type: binding
T1 construct: from tissue; host or cells: rat cerebral cortex membranes
Protocol: Binding at the α4β2 nicotinic acetyicholine receptor can be measured as described in Abood, et al., Biochem. Pharmacol., 1986, 35:4199, or in Boksa, et al, Eur. J Pharmacol., 1987, 139:323. In essence, washed rat cerebral cortex membranes suspended in ice-cold saline (pH 7.4) were incubated with [^3H]-N-methylcarbamyl choline (^3H—MCC) for 60 minutes before being washed free of unbound radioligand with two rapid washes of the saline solution, using vacuum filtration. The glass filters used to collect the membranes for scintillation counting were pre-equilibrated with polyethyleneimine to reduce ligand binding by the filters.
Atropine sulfate at 12 μM was used to block muscarinic binding sites. Non-specific binding was assessed in the presence of 100 μM carbamylcholine. Thus, the Kd values of the test compounds were determined by their ability to compete for [^3H-acetyl]choline or ^3H—MCC binding. […] Some representative compounds of Formula I were tested for their ability to displace [^3H]—MCC. The Kl values presented in the table are mean values obtained from two separate experiments. […] In Table 3, “NA.” means that the data are not available.

[2] = molecular target: α4β2 nicotinic receptors (Rattus norvegicus, UniProt P09483+P12390); assay: [3H]cytisine binding displacement, washed whole rat brain membranes
[3] = test system: α7 receptors; assay: Residual inhibition of ACh response after exposure to compound, oocytes; type: cell-based; conditions: 100 pM compound
Protocol: Peak currents were measured for responses of α4β2 receptors to agonist application, because desensitization of this receptor subtype was slow enough not to affect the concentration-response relation measured in this manner. Currents resulting from agonist application to the more rapidly desensitizing α7 receptors were integrated over a period of […] after application commenced. To compare data obtained from different oocytes, a standard response normalization procedure was used. Agonist responses of a particular oocyte were always normalized relative to its response to a standard acetylcholine (ACh) control. Before actual measurements of agonist properties, several ACh pulses separated by 5-mm intervals were applied until the responses of the oocyte to ACh became steady. After washing for 5 mm, the peak current response to the test compound was measured. After another 5-mm washing period, ACh was again applied to measure the residual responsiveness of the receptors to ACh after exposure to the test substance. The concentration-response data were fitted with a modified Hill equation, I=Imax [agonist]^nH/([agonist]^nH+EC50), to estimate apparent efficacy (normalized maximal response) and EC50.
The numbers in parentheses in Table 2 are calculated EC50, values for just the ionized forms.

[4] = Kitagawa et al. 2003; cited from earlier work
[5] = displacement of [3H]-MCC, mean of two experiments, Cheng-Prusoff with Kd 5 nM, read-out: α4β2 Ki
[6] = inhibitory concentration of the ionized form, calculated assuming only the cationic form interacts, read-out: [3H] Cytisine Binding Ki(Ion)
[7] = rat brain membranes, radioligand 1 nM, mean±S.E.M. of three experiments, read-out: [3H] Cytisine Binding Ki ± S.E.M.

Sequence of α4β2 nicotinic receptors (P09483 31-630): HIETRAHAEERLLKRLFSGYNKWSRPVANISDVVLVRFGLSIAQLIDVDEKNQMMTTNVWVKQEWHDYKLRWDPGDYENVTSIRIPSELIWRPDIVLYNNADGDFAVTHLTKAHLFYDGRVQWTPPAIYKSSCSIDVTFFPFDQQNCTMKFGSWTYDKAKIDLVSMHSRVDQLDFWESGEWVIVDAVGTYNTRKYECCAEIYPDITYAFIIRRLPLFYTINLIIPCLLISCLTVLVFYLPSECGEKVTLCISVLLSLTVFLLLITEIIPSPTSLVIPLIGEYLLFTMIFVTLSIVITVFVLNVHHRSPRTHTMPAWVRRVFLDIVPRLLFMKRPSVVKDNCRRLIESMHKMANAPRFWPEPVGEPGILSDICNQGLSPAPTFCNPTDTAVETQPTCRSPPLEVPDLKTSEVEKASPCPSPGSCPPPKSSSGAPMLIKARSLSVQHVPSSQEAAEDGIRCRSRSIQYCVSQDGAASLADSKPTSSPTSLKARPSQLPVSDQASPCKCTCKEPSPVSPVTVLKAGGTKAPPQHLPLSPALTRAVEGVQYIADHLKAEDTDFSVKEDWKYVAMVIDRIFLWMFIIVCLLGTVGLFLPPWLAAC
Sequence of α4β2 nicotinic receptors (P12390 25-500): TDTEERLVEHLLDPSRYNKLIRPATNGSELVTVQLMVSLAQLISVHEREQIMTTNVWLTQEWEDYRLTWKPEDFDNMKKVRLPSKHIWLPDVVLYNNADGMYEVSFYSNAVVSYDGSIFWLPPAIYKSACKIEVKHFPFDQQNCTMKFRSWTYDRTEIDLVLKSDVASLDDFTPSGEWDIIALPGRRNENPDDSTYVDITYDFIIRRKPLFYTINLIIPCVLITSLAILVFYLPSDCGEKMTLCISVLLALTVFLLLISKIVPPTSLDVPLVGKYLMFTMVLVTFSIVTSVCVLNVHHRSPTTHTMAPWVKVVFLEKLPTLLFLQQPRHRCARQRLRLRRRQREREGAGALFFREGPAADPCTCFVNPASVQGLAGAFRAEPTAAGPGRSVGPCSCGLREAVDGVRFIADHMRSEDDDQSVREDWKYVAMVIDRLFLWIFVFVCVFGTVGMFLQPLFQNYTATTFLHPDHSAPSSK
T1 sequence (P09483 31-630): as the sequence (P09483 31-630) above
T1 sequence (P12390 25-500): as the sequence (P12390 25-500) above

**Q.** For “6′-Methyl-3-(2,4-dimethoxybenzylidene)anabaseine [GTS-57]”, which Ki [1, 5] is on record?
**A.** 500 nM

**Q.** For CN(C)c1ccc(C=CC=C2CCCN=C2c2cccnc2)cc1 [DMACA, 3-(4-Dimethylaminocinnamylidene)anabaseine], which Ki ([1]; read-out: α4β2 Ki) is on record?
**A.** 400 nM

**Q.** Which Ki [1] does the source give for COc1ccc(C=C2CCCN=C2c2cccnc2)cc1 [GTS-2, 3-(4-Methoxybenzylidene)anabaseine] here?
**A.** 320 nM

**Q.** With O=[N+]([O-])c1ccc(C=C2CCCN=C2c2cccnc2)cc1 [GTS-3, 3-(4-Nitrobenzylidene)anabaseine] as the compound, how does the Ki ([1]; read-out: α4β2 Ki) read?
**A.** > 5000 nM

**Q.** With N#Cc1ccc(C=C2CCCN=C2c2cccnc2)cc1 [GTS-5, 3-(4-Cyanobenzylidene)anabaseine] as the compound, how does the Ki ([1]; read-out: α4β2 Ki) read?
**A.** > 5000 nM

**Q.** Which Ki ([1]; read-out: α4β2 Ki) does the source give for Oc1ccc(C=C2CCCN=C2c2cccnc2)cc1 [GTS-7, 3-(4-Hydroxybenzylidene)anabaseine] here?
**A.** 25 nM

**Q.** Which Ki ([1]; read-out: α4β2 Ki) does the source give for Clc1ccc(C=C2CCCN=C2c2cccnc2)cc1 [GTS-8, 3-(4-Chlorobenzylidene)anabaseine] here?
**A.** > 5000 nM

**Q.** For Nc1ccc(C=C2CCCN=C2c2cccnc2)cc1 [GTS-13, 3-(4-Aminobenzylidene)anabaseine], which Ki ([1]; read-out: α4β2 Ki) is on record?
**A.** 170 nM

**Q.** Which Ki ([1]; read-out: α4β2 Ki) does the source give for CN(C)CCCOc1ccc(C=C2CCCN=C2c2cccnc2)cc1 [GTS-15, 3-(4-Dimethylaminopropoxy-benzylidene)anabaseine] here?
**A.** 1600 nM

**Q.** For COc1ccccc1C=C1CCCN=C1c1cccnc1 [GTS-16, 3-(2-Methoxybenzylidene)anabaseine], which Ki ([1]; read-out: α4β2 Ki) is on record?
**A.** 830 nM

**Q.** Which Ki [1] does the source give for COc1cccc(C=C2CCCN=C2c2cccnc2)c1 [GTS-20, 3-(3-Methoxybenzylidene)anabaseine] here?
**A.** 4000 nM

**Q.** For COc1ccc(/C=C2\CCCN=C2c2cccnc2)c(OC)c1 [GTS-21, 3-(2,4-Dimethoxybenzylidene)anabaseine], which Ki [2, 6] is on record?
**A.** 158 nM

**Q.** And the Ki [2, 7]?
**A.** 253 ± 37 nM

**Q.** And the “residual inhibition (reduced response to ACh 5 min after washing)” value [3]?
**A.** ~50%

**Q.** What about the Ki ([1]; read-out: α4β2 Ki) of the same compound?
**A.** 120 nM

**Q.** What about the “human toxicity in phase I clinical trial” value [4] of the same compound?
**A.** did not display significant human toxicity

**Q.** For COc1cc(C=C2CCCN=C2c2cccnc2)ccc1O [GTS-23, 3-(3-Methoxy-4-hydroxybenzylidene)anabaseine], which Ki ([1]; read-out: α4β2 Ki) is on record?
**A.** > 5000 nM

**Q.** For Cc1ccc(C2=NCCCC2)cn1 [GTS-26, 6′-Methylanabaseine], which Ki [1] is on record?
**A.** 26 nM

**Q.** For Cc1ncccc1C1=NCCCC1 [GTS-27, 2′-Methylanabaseine], which Ki [1] is on record?
**A.** 33000 nM

**Q.** Which Ki [1] does the source give for Cc1ccncc1C1=NCCCC1 [GTS-28, 4′-Methylanabaseine] here?
**A.** 3800 nM

**Q.** For COc1cc(OC)c(C=C2CCCN=C2c2cccnc2)c(OC)c1 [GTS-35, 3-(2,4,6-Trimethoxybenzylidene)anabaseine], which Ki ([1]; read-out: α4β2 Ki) is on record?
**A.** 170 nM

**Q.** Which Ki ([1]; read-out: α4β2 Ki) does the source give for Clc1ccc(C=C2CCCN=C2c2cccnc2)c(Cl)c1 [GTS-38, 3-(2,4-Dichlorobenzylidene)anabaseine] here?
**A.** 2000 nM

**Q.** For Cc1ccc(C=C2CCCN=C2c2cccnc2)c(C)c1 [GTS-39, 3-(2,4-Dimethylbenzylidene)anabaseine], which Ki ([1]; read-out: α4β2 Ki) is on record?
**A.** 1000 nM

**Q.** With Cc1cc(C)c(C=C2CCCN=C2c2cccnc2)c(C)c1 [GTS-40, 3-(2,46,-Trimethylbenzylidene)anabaseine] as the compound, how does the Ki ([1]; read-out: α4β2 Ki) read?
**A.** 500 nM

**Q.** Which Ki ([1]; read-out: α4β2 Ki) does the source give for C(=C1CCCN=C1c1cccnc1)c1ccco1 [GTS-43, 3-(2-Furylidene)anabaseine] here?
**A.** 640 nM

**Q.** For C(=Cc1ccco1)C=C1CCCN=C1c1cccnc1 [GTS-44, 3-(2-Furylpropenylidene)anabaseine], which Ki ([1]; read-out: α4β2 Ki) is on record?
**A.** 800 nM

**Q.** With C(=C1CCCN=C1c1cccnc1)c1ccoc1 [GTS-45, 3(3-Furylidene)anabaseine] as the compound, how does the Ki ([1]; read-out: α4β2 Ki) read?
**A.** 860 nM

**Q.** With Cc1ccc(C=C2CCCN=C2c2cccnc2)cc1 [GTS-48, 3-(4-Methylbenzylidene)anabaseine] as the compound, how does the Ki ([1]; read-out: α4β2 Ki) read?
**A.** 2000 nM

**Q.** For COc1ccc(C=C2CCCN=C2c2cccnc2)c(O)c1 [GTS-51, 3-(2-Hydroxy-4-methoxybenzylidene)anabaseine], which Ki [2, 6] is on record?
**A.** 128 nM

**Q.** And the Ki [2, 7]?
**A.** 387 ± 25 nM

**Q.** What about the Ki ([1]; read-out: α4β2 Ki) of the same compound?
**A.** 1500 nM

**Q.** Which Ki [2, 6] does the source give for Oc1ccc(C=C2CCCN=C2c2cccnc2)c(O)c1 [GTS-52, 3-(2,4-Dihydroxybenzylidene)anabaseine] here?
**A.** 103 nM

**Q.** What about the Ki [2, 7] of the same compound?
**A.** 206 ± 16 nM

**Q.** What about the Ki ([1]; read-out: α4β2 Ki) of the same compound?
**A.** 450 nM

**Q.** Which Ki ([1]; read-out: α4β2 Ki) does the source give for CCCOc1ccc(C=C2CCCN=C2c2cccnc2)c(OCCC)c1 [GTS-53, 3-(2,4-Dipropoxybenzylidene)anabaseine] here?
**A.** 4500 nM

**Q.** For CC(C)Oc1ccc(C=C2CCCN=C2c2cccnc2)c(OC(C)C)c1 [GTS-54, 3-(2,4-Diisopropoxybenzylidene)anabaseine], which Ki ([1]; read-out: α4β2 Ki) is on record?
**A.** 1000 nM

**Q.** Which Ki ([1]; read-out: α4β2 Ki) does the source give for CCCCCOc1ccc(C=C2CCCN=C2c2cccnc2)c(OCCCCC)c1 [GTS-55, 3-(2,4-Dipentoxybenzylidene)anabaseine] here?
**A.** 2500 nM

**Q.** With CCCCCOc1ccc(C=C2CCCN=C2c2cccnc2)c(O)c1 [GTS-56, 3-(2-Hydroxy-4-pentoxybenzylidene)anabaseine] as the compound, how does the Ki ([1]; read-out: α4β2 Ki) read?
**A.** 250 nM

**Q.** With COc1ccc(C=C2CCC[N+](C)=C2c2cccnc2)c(OC)c1 [GTS-58, 1-Methyl-3-(2,4-djmethoxybenzylidene)anabaseine trifluoroacetate] as the compound, how does the Ki [1, 5] read?
**A.** > 5000 nM

**Q.** With Cc1cncc(C2=NCCCC2)c1 [GTS-60, 5′-Methylanabaseine] as the compound, how does the Ki [1] read?
**A.** 130 nM

**Q.** Which Ki ([1]; read-out: α4β2 Ki) does the source give for COc1ccc(C=C2CCCN=C2c2ccccc2)c(OC)c1 [GTS-63, 2-Phenyl-3-(2,4-dimethoxybenzylidene)-4,5,6-trihydropyridine] here?
**A.** > 5000 nM
